For 15 molecules, MIC and Selectivity ratio results are on record in ChEMBL document CHEMBL3804819, “2-(Quinolin-4-yloxy)acetamides Are Active against Drug-Susceptible and Drug-Resistant Mycobacterium tuberculosis Strains” (ACS Med Chem Lett, 2016).

Each structure is given as a SMILES string. In brackets after ≈: the same amount, converted by molar mass.

Common to all, as to type: functional
Test [1] deals with Mycobacterium tuberculosis. In words: Antibacterial activity against isoniazid-resistant Mycobacterium tuberculosis RS-032 clinical isolate harboring katG S315T mutant assessed as reduction in bacterial growth after 7 days by resazurin assay. On the technique in general: The colour change of resazurin is a common sign of viable cells or microbes.
Test [2] deals with Mycobacterium tuberculosis. In words: Selectivity ratio of MIC for isoniazid-resistant Mycobacterium tuberculosis RS-032 clinical isolate harboring katG S315T mutant to MIC for Mycobacterium tuberculosis H37Rv.
The test system of test [3] is Mycobacterium tuberculosis. In words: Antibacterial activity against multidrug-resistant Mycobacterium tuberculosis PE-003 clinical isolate harboring inhA C(-15)T mutant assessed as reduction in bacterial growth after 7 days by resazurin assay.
Test [4] has as its system Mycobacterium tuberculosis. In words: Antibacterial activity against isoniazid-resistant Mycobacterium tuberculosis RS-036 clinical isolate harboring inhA C(-15)T mutant assessed as reduction in bacterial growth after 7 days by resazurin assay.

One may read the MIC as the lowest concentration found to suppress growth.

Regarding `COc1ccc2nc(C)cc(OCC(=O)Nc3ccccc3OC)c2c1`, the MIC worked out at 0.88 µM (≈ 0.31 µg/mL) in test [1], 0.06 µM (≈ 0.0211 µg/mL) in test [3] and 0.44 µM (≈ 0.155 µg/mL) in test [4]. For the same molecule, in test [2], the Selectivity ratio is 2.
Take `COc1ccc(NC(=O)COc2cc(C)nc3ccc(OC)cc23)cc1`: the MIC stood at 0.88 µM (≈ 0.31 µg/mL) in test [1], 0.06 µM (≈ 0.0211 µg/mL) in test [3] and 0.44 µM (≈ 0.155 µg/mL) in test [4]. Also, in test [2], the Selectivity ratio is 2.
For the molecule `COc1ccc2nc(C)cc(OCC(=O)Nc3ccccc3C)c2c1`, the MIC in test [1] was 0.93 µM (≈ 0.313 µg/mL); in test [3] it was 0.11 µM (≈ 0.037 µg/mL); in test [4], 0.46 µM (≈ 0.155 µg/mL). In addition, in test [2], the Selectivity ratio came out at 2.
For `COc1ccc2nc(C)cc(OCC(=O)Nc3ccc(Cl)cc3)c2c1`, in that order: 0.87 µM (≈ 0.31 µg/mL), 0.06 µM (≈ 0.0214 µg/mL), 0.44 µM (≈ 0.157 µg/mL) and 2.
Take `COc1ccc(NC(=O)COc2cc(C)nc3ccc(OC)cc23)c(OC)c1`: the MIC in test [1] is 0.81 µM (≈ 0.31 µg/mL); in test [3] it was 0.2 µM (≈ 0.0765 µg/mL); in test [4] it was 0.41 µM (≈ 0.157 µg/mL). Moreover, in test [2], the Selectivity ratio is recorded as 2.
As for `COc1ccc2nc(C)cc(OCC(=O)Nc3cccc(Cl)c3)c2c1`, the MIC in test [1] was 3.5 µM (≈ 1.25 µg/mL); in test [3], 0.22 µM (≈ 0.0785 µg/mL); in test [4], 0.87 µM (≈ 0.31 µg/mL).
On to `COc1ccc2nc(C)cc(OCC(=O)Nc3ccccc3Cl)c2c1`, for which the MIC in test [1] is 1.75 µM (≈ 0.624 µg/mL); in test [3], 0.11 µM (≈ 0.0392 µg/mL); in test [4], 0.44 µM (≈ 0.157 µg/mL).
Consider `COc1ccc2nc(C)cc(OCC(=O)Nc3ccc(Br)cc3)c2c1`, for which the results for the MIC in test [1], in test [3] and in test [4] were 0.78 µM (≈ 0.313 µg/mL), 0.05 µM (≈ 0.0201 µg/mL) and 0.39 µM (≈ 0.156 µg/mL), respectively. Further, the Selectivity ratio in test [2] came out at 2.
`COc1ccc2nc(C)cc(OCC(=O)NCc3ccccc3)c2c1`: the figures for the minimal inhibitory concentration (MIC) in test [1], in test [3] and in test [4] were 3.71 µM (≈ 1.25 µg/mL), 0.46 µM (≈ 0.155 µg/mL) and 1.85 µM (≈ 0.622 µg/mL), respectively. In addition, in test [2], the Selectivity ratio stood at 2.
For `COc1ccc2nc(C)cc(OCC(=O)Nc3ccc4ccccc4c3)c2c1`, the MIC in test [1] was 0.84 µM (≈ 0.313 µg/mL); in test [3], 0.05 µM (≈ 0.0186 µg/mL); in test [4], 0.1 µM (≈ 0.0372 µg/mL). The Selectivity ratio in test [2] stood at 2.
For `COc1ccc2nc(C)cc(OCC(=O)Nc3ccccc3)c2c1`, the MIC in test [1] came out at 1.93 µM (≈ 0.622 µg/mL); in test [3], 0.24 µM (≈ 0.0774 µg/mL); in test [4], 0.48 µM (≈ 0.155 µg/mL). Further, the Selectivity ratio in test [2] was found to be 2.
On to `COc1ccc2nc(C)cc(OCC(=O)Nc3ccc4c(c3)OCO4)c2c1`, for which the MIC in test [1] was found to be 3.41 µM (≈ 1.25 µg/mL); in test [3], 0.21 µM (≈ 0.0769 µg/mL); in test [4], 0.85 µM (≈ 0.311 µg/mL). In addition, the Selectivity ratio in test [2] was found to be 2.
In the case of `COc1ccc2nc(C)cc(OCC(=O)Nc3ccc(C(F)(F)F)cc3)c2c1`, the MIC in test [1] amounted to 1.6 µM (≈ 0.625 µg/mL); in test [3], 0.1 µM (≈ 0.039 µg/mL); in test [4], 0.8 µM (≈ 0.312 µg/mL).
Take `COc1cccc(NC(=O)COc2cc(C)nc3ccc(OC)cc23)c1`: the MIC stood at 7.08 µM (≈ 2.49 µg/mL) in test [1], 0.44 µM (≈ 0.155 µg/mL) in test [3] and 1.77 µM (≈ 0.624 µg/mL) in test [4]. The Selectivity ratio in test [2] was 2.
On to `NNC(=O)c1ccncc1` [ISONIAZID], for which the MIC in test [1], in test [3] and in test [4] was greater than 70 µM in each case.
